Test results: patent EP3079693B1 (priority 2013, dated 2015)

Legend:
[1] = tested on: constitutive gene expression; assay: Counter screen: separate reporter system with cell death-activated reporter construct (constitutive gene expression); conditions: for toxicity in antiviral and counterscreen assays: at 50uM, both antiviral and counterscreen assay; for observed toxicity or efficacy in either assay tested: antiviral and counterscreen assay
[2] = target: T1, influenza A RNA-dependent RNA polymerase (Influenza A virus, UniProt P03428+P03431+P03433); assay: cell-based
[3] = tested on: influenza B; assay: Inhibition of influenza B (method not described)
[4] = tested on: influenza A/Puerto Rico/8/34 (H1N1) virus; type: cell-based
[5] = tested on: influenza A; type: cell-based
[6] = tested on: H3N2 serotype A/Aichi/2/68; type: cell-based, influenza A
[7] = tested on: influenza A/Puerto Rico/8/34; assay: In vivo survival study after live infection; set-up: species or system Balb/C mice; conditions: 3 doses, 2xLD50 intranasal challenge, survival = 70% or more of starting weight
Procedure: In Vivo Survival Studies: Groups of 5 Balb/C mice ([…]) were weighed prior to the start of study and injected intravenously at the base of the tail with formulations containing A0435 at doses of 3.17, 1, or 0 mg/kg in phosphate buffered saline containing 3% w/v mouse serum albumin. Four hours later, these mice were challenged intranasally with 2xLD50 of influenza A/Puerto Rico/8/34 under anesthesia. Identical doses of A0435 were administered 24 and 48 hours after the initial dose administration and animal weights were monitored daily. Surviving animals were defined as those who maintained 70% or more of their starting weight.

[8] = tested on: influenza A/WS/1933 (H1N1); type: cell-based
[9] = tested on: liver-derived HepG2 cells
[10] = tested on: primary renal proximal tubule epithelial cells (or RPTEC)
[11] = target: T1, influenza A RNA-dependent RNA polymerase

Compound	IC50 [2] [µM]	observed toxicity or efficacy in either assay tested [1]	also measured
CCc1c(C)nc2cc(-c3ccc(OC)c(OC)c3)nn2c1NCCc1ccccn1 [A0435, 2-(3,4-dimethoxyphenyl)-6-ethyl-5-methyl-N-[2(pyridin-2-yl)ethyl]pyrazolo[1,5-a]pyrimidin-7-amine]	~3		inhibitory impact on the level of constitutive gene expression ([1]; counter-screen assay, dose titration): no visible inhibitory impact; inhibition of influenza B [3]: inhibitable; concentrations with significant antiviral activity [4]: > 4 µM; cytopathic effects characteristic of influenza A infection [5]: little to no signs of the cytopathic effects; inhibition of virus [6]: significantly inhibited; animals survived infection at day 7 post-infection ([7]; 1 mg/kg intravenously): 2/5; animals survived infection at day 7 post-infection ([7]; 3.17 mg/kg intravenously): 3/5; inhibition of virus [8]: significantly inhibited; tolerability in cellular model of toxicity [9]: well-tolerated; tolerability in cellular model of toxicity [10]: well-tolerated
CCc1c(C)nc2cc(-c3ccc(OC)c(OC)c3)nn2c1NCCc1ccccc1C [A0439, 2-(3,4-dimethoxyphenyl)-6-ethyl-5-methyl-N-[2(2-methylphenyl)ethyl]pyrazolo[1,5-a]pyrimidin-7-amine]	~5		concentrations with significant antiviral activity [4]: > 7.5 µM; toxicity in the reporter assay [11]: increased toxicity at higher doses due to precipitation
COc1ccc(-c2cc3nc4c(c(NCCc5cccnc5)n3n2)CCC4)cc1OC [A0444, 2-(3,4-dimethoxyphenyl)-N-(2-(pyridin-3-yl)ethyl)-6,7-dihydro-5H-cyclopenta[d]pyrazolo[1,5-a]pyrimidin-8-amine]	> 10		toxicity in antiviral and counterscreen assays [1]: >10uM (toxic to both antiviral and counterscreen at 50uM)
CCc1c(C)nc2cc(-c3cc(OC)cc(OC)c3)nn2c1NCCc1ccccc1 [A0527, 2-(3,5-dimethoxyphenyl)-6-ethyl-5-methyl-N-phenethylpyrazolo[1,5-a]pyrimidin-7-amine]	> 50	>50 µM (no observed toxicity or efficacy in either assay tested)	
Cc1cc(NCC(O)c2cccc(O)c2)n2nc(-c3cccc(F)c3)cc2n1 (centres unmarked) [A0532, 3-(2-(2-(3-fluorophenyl)-5-methylpyrazolo[1,5-a]pyrimidin-7-ylamino)-1-hydroxyethyl)phenol]	> 50	>50 µM (no observed toxicity or efficacy in either assay tested)	
CCc1c(C)nc2cc(-c3cc(C)on3)nn2c1NCCc1ccccn1 [A0445, 6-ethyl-5-methyl-2-(5-methylisoxazol-3-yl)-N-(2-(pyridin-2-yl)ethyl)pyrazolo[1,5-a]pyrimidin-7-amine]	> 50	>50 µM (no observed toxicity or efficacy in either assay tested)	
CCc1c(C)nc2cc(-c3ccc(OC)c(OC)c3)nn2c1NCCc1ccc(F)cc1 [A0440, 2-(3,4-dimethoxyphenyl)-6-ethyl-N-(4-fluorophenethyl)-5-methylpyrazolo[1,5-a]pyrimidin-7-amine]	> 50	>50 µM (no observed toxicity or efficacy in either assay tested)	
COc1ccc(-c2cc3nc(C)cc(NCc4ccc5c(c4)OCO5)n3n2)cc1 [A0530, N-(benzo[d][1,3]dioxol-5-ylmethyl)-2-(4-methoxyphenyl)-5-methylpyrazolo[1,5-a]pyrimidin-7-amine]	> 50	>50 µM (no observed toxicity or efficacy in either assay tested)	
Fc1ccc(-c2cc3nc4c(c(NCCc5ccccn5)n3n2)CCCC4)cc1 [A0441, 2-(4-fluorophenyl)-N-(2-(pyridin-2-yl)ethyl)-5,6,7,8-tetrahydropyrazolo[5,1-b]quinazolin-9-amine]	> 10		toxicity in antiviral and counterscreen assays [1]: >10uM (toxic to both antiviral and counterscreen at 50uM)
CCOc1ccc(-c2cc3c(SCc4cccc(C)c4)nccn3n2)cc1 [A0552, 2-(4-ethoxyphenyl)-4-(3-methylbenzylthio)pyrazolo[1,5-a]pyrazine]	> 50	>50 µM (no observed toxicity or efficacy in either assay tested)	
COc1ccc(-c2c(C)nn3c(NCC(C)c4ccccc4)cc(C)nc23)cc1OC (centres unmarked) [A0549, 3-(3,4-dimethoxyphenyl)-2,5-dimethyl-N-(2-phenylpropyl)pyrazolo[1,5-a]pyrimidin-7-amine]	> 50	>50 µM (no observed toxicity or efficacy in either assay tested)	
COc1ccc(-c2cc3nccc(NCc4ccccc4OC)n3n2)cc1 [A0547, N-(2-methoxybenzyl)-2-(4-methoxyphenyl)pyrazolo[1,5-a]pyrimidin-7-amine]	> 50	>50 µM (no observed toxicity or efficacy in either assay tested)	
Cc1cc(NC(CO)C(O)c2ccccc2)n2nc(-c3cccc(F)c3)cc2n1 (centres unmarked) [A0531, 2-(2-(3-fluorophenyl)-5-methylpyrazolo[1,5-a]pyrimidin-7-ylamino)-1-phenylpropane-1,3-diol]	> 50	>50 µM (no observed toxicity or efficacy in either assay tested)	
COc1ccc(-c2cc3c(=O)[nH]nc(SCc4ccc5c(c4)OCO5)n3n2)cc1OC [A0551, 7-(benzo[d][1,3]dioxol-5-ylmethylthio)-2-(3,4-dimethoxyphenyl)pyrazolo[1,5-d][1,2,4]triazin-4(5H)-one]	> 50	>50 µM (no observed toxicity or efficacy in either assay tested)	
